Molecules are shown by their SMILES.

The nature of data set [1]: 5-MeO-DMT, 5-MIAA and bufotenine in urine, serum and breastmilk of a lactating PPD patient, LC-MS/MS. As to the method: The second patients was lactating, and, per the clinical trial protocol, breastmilk samples were collected pre-dosing and at multiple timepoints after administration of the last dose. […] Similar analyses were carried out on patient serum and urine samples.

Data set [2] has as its system Salmonella typhimurium (TA98, TA100, TA1535 and TA1537). Briefly: Bacterial mutation test, Salmonella typhimurium. Format: cell-based. The text has this:
(§1) These conditions included treatments at concentrations up to […] (the maximum recommended concentration according to current regulatory guidelines), in the absence and in the presence of a rat liver metabolic activation system (S-9).

For data set [3], the system named is Escherichia coli (WP2 uvrA pKM101). Briefly: Bacterial mutation test, Escherichia coli. Format: cell-based. Particulars: up to 5000 pg/plate, with and without S-9.
Excerpt: as §1

The subject of the next data set is human plasma proteins. As to the kind of experiment: 5-MeO-DMT binding to human plasma proteins, high throughput dialysis. Particulars: 4-hour dialysis. Format: in vitro ADME. The method, then: Following evaluation of the equilibration data, plasma protein binding was investigated at nominal concentrations of 0.1, 1 and 10 μM using a 4-hour dialysis time. […]

Where [4] appears, read: 1.0 hrs after last dose (6 mg then 12 mg 5-MeO-DMT).

Consider `COc1ccc2[nH]cc(CCN(C)C)c2c1` [5-MeO-DMT], for which the Breastmilk concentration in data set [1] (setting [4]) was 2167.0 pg/mL; in data set [1] (2.5 hrs after last dose), 560.6 pg/mL; in data set [1] (8.5 hrs after last dose), 42.1 pg/mL; in data set [1] (24.0 hrs after last dose) it was “did not detect any 5-MeO-DMT and BLG”; in data set [1] (120.0 hrs after last dose), “BLQ (BLQ: Below limit of quantification. The lower limit of quantification is 25 pg/ml for both 5-MeO-DMT and 5-MIAA in both serum and breastmilk; it is 25 pg/ml in urine for 5-MeO-DMT and 250 pg/ml for 5-MIAA in urine.)”; in data set [1] (−24.0 hrs (pre-dosing)), “BLQ (BLQ: Below limit of quantification. The lower limit of quantification is 25 pg/ml for both 5-MeO-DMT and 5-MIAA in both serum and breastmilk; it is 25 pg/ml in urine for 5-MeO-DMT and 250 pg/ml for 5-MIAA in urine.)”. The Serum concentration in data set [1] (setting [4]) is 0.1329 ng/mL; in data set [1] (2.5 hrs after last dose), “BLQ (BLQ: Below limit of quantification. The lower limit of quantification is 25 pg/ml for both 5-MeO-DMT and 5-MIAA in both serum and breastmilk; it is 25 pg/ml in urine for 5-MeO-DMT and 250 pg/ml for 5-MIAA in urine.)”; in data set [1] (24.0 hrs after last dose), “BLQ (BLQ: Below limit of quantification. The lower limit of quantification is 25 pg/ml for both 5-MeO-DMT and 5-MIAA in both serum and breastmilk; it is 25 pg/ml in urine for 5-MeO-DMT and 250 pg/ml for 5-MIAA in urine.)”; in data set [1] (120.0 hrs after last dose), “BLQ (BLQ: Below limit of quantification. The lower limit of quantification is 25 pg/ml for both 5-MeO-DMT and 5-MIAA in both serum and breastmilk; it is 25 pg/ml in urine for 5-MeO-DMT and 250 pg/ml for 5-MIAA in urine.)”; in data set [1] (−24.0 hrs (pre-dosing)), “BLQ (BLQ: Below limit of quantification. The lower limit of quantification is 25 pg/ml for both 5-MeO-DMT and 5-MIAA in both serum and breastmilk; it is 25 pg/ml in urine for 5-MeO-DMT and 250 pg/ml for 5-MIAA in urine.)”. Besides, the Urine concentration in data set [1] (2.5 hrs after last dose) is 566.7 pg/mL; in data set [1] (8.5 hrs after last dose), “BLQ (BLQ: Below limit of quantification. The lower limit of quantification is 25 pg/ml for both 5-MeO-DMT and 5-MIAA in both serum and breastmilk; it is 25 pg/ml in urine for 5-MeO-DMT and 250 pg/ml for 5-MIAA in urine.)”; in data set [1] (24.0 hrs after last dose), “BLQ (BLQ: Below limit of quantification. The lower limit of quantification is 25 pg/ml for both 5-MeO-DMT and 5-MIAA in both serum and breastmilk; it is 25 pg/ml in urine for 5-MeO-DMT and 250 pg/ml for 5-MIAA in urine.)”; in data set [1] (120.0 hrs after last dose), “BLQ (BLQ: Below limit of quantification. The lower limit of quantification is 25 pg/ml for both 5-MeO-DMT and 5-MIAA in both serum and breastmilk; it is 25 pg/ml in urine for 5-MeO-DMT and 250 pg/ml for 5-MIAA in urine.)”; in data set [1] (−24.0 hrs (pre-dosing)), “BLQ (BLQ: Below limit of quantification. The lower limit of quantification is 25 pg/ml for both 5-MeO-DMT and 5-MIAA in both serum and breastmilk; it is 25 pg/ml in urine for 5-MeO-DMT and 250 pg/ml for 5-MIAA in urine.)”. In data set [2], the “in vitro genotoxicity assessment” value is recorded as “negative”. The induction of mutation entry in data set [2] (up to 5000 μg/plate, with and without S-9) is “did not induce mutation”; in data set [3] it was “did not induce mutation”. Moreover, the results for the “Free Fraction in human plasma” value in the data set on human plasma proteins (0.1 μM), in the data set on human plasma proteins (1 μM) and in the data set on human plasma proteins (10 μM) were 78.7%, 77.3% and 87.0%, respectively.

(Values after patent US20240108602A1, “TREATMENT OF MENTAL DISORDERS” (GH Research Ireland Limited, priority 2022, published 2024).)
